The values below come from patent publication US11319283B2, “Substituted cyclobutylbenzene compounds as indoleamine 2,3-dioxygenase (IDO) inhibitors” (MERCK SHARP & DOHME CORP., priority 2017, dated 2022).

The target in assay [1] is T1, TDO (Homo sapiens, UniProt P48775).
T1 construct: endogenous in cells; host or cells: SW48 cells (A2780 cells as control with minimal TDO activity)
The experiment in a line: TDO Cellular Assay in Frozen SW48 Cells. The class given is cell-based. The following applies: 300 uM L-tryptophan, about 48 hours, fluorescence readout. The procedure:
TDO Cellular Assay in Frozen SW48 Cells
SW48 cells were cultured in complete RPMI culture medium (90% RPMI, 10% heat-inactivated fetal bovine serum).
Compounds to be tested were serially diluted in ten 3-fold steps in DMSO starting from 10 mM DMSO stocks in Echo low volume plate(s). […] The cells were spun down at 350 g in a table top centrifuge for 5 minutes and suspended in same volume of RPMI assay medium. […] Sterile L-tryptophan (Sigma, Cat # T0254) was added to the cells with final concentration of 300 uM.
SW48 and A2780 cells were dispensed to the respective wells of 384-well assay plates containing the compounds. The plates were incubated for about 48 hours at a 37° C., 5% CO2 incubator. Afterwards, 12 μL of 0.5 M ethyl isonipecotate (Sigma Aldrich, Cat # E33505) in dimethyl sulfoxide were added into each well and the plates were sealed and incubated at 37° C. without CO2 overnight. The plates were centrifuged for 1 minute at 200×g. The resulting fluorescence was measured in a Spectramax plate reader (Molecular Devices) with a 400 nm excitation filter and a 510 nm emission filter.
The fluorescence intensity of each well was corrected for the background observed in wells with A2780 cells and was expressed as a fraction of the intensity observed in wells of SW48 cells and DMSO only. Potencies were calculated by linear least squares fit to the four parameter logistic IC50 equation.

In assay [2] the target is IDO1 (Homo sapiens, UniProt P14902). In words: IDO1 Cellular Assay in Hela Cells Stimulated with IFNγ. It is filed as cell-based. On the set-up: endogenous in cells; host or cells: HeLa cells stimulated with IFNγ (100 ng/mL). The following applies: Hela cells stimulated with IFNγ 100 ng/mL, 300 uM L-tryptophan, about 48 hours, fluorescence readout. The procedure: IDO1 Cellular Assay in Hela Cells Stimulated with IFNγ
Hela cells were cultured in complete Hela culture medium (90% EMEM, 10% heat-inactivated fetal bovine serum) and expanded to about 1×10^9 cells. The cells were then collected and frozen down at 1×10^7 cells/vial in 1 mL frozen medium (90% complete Hela culture medium, 10% DMSO)
Compounds to be tested were serially diluted in ten 3-fold steps in DMSO starting from 10 mM DMSO stocks in Echo low volume plate(s).
Frozen Hela cells were thawed and transferred into Hela assay medium (99% complete Hela culture medium, 1% Pen/Strep) with 20 mL medium/vial of cells. The cells were spun down at 250 g in a table top centrifuge for 5 min and suspended in same volume of Hela assay medium. The cells were then counted and adjusted to a density of 2×10^5 cells/ml in Hela assay medium. Sterile L-tryptophan were added to the cells with final concentration of 300 uM L-tryptophan. A small aliquot (2 mL/plate) of Hela cells were set aside and were not treated with IFNγ, to serve as the Max-E control.
Hela cells with and without IFNγ were dispensed to the respective wells of 384-well assay plates containing the compounds. The plates were incubated for about 48 hours at a 37° C., 5% CO2 incubator. Afterwards, […] of 0.5 M methyl isonipecotate in dimethyl sulfoxide were added into each well and the plates were sealed and incubated at 37° C. without CO2 overnight. The plates were centrifuged for 1 min at 200×g. The resulting fluorescence was measured in a Spectramax plate reader (Molecular Devices) with a 400 nm excitation filter and a 510 nm emission filter.
Potencies were calculated by linear least squares fit to the four parameter logistic IC50 equation.

T1 sequence (P48775 whole entry): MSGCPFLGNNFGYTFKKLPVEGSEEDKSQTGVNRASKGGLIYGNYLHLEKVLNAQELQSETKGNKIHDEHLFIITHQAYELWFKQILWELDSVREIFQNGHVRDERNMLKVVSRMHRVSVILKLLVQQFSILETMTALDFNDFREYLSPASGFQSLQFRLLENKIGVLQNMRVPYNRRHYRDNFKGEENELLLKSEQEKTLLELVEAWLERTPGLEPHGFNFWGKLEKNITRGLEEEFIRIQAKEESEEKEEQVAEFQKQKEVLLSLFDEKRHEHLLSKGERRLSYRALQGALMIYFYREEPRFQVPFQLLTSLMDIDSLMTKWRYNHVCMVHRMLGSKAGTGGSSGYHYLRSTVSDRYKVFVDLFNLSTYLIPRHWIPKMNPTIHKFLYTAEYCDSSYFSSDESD
Sequence of IDO1 (P14902 whole entry): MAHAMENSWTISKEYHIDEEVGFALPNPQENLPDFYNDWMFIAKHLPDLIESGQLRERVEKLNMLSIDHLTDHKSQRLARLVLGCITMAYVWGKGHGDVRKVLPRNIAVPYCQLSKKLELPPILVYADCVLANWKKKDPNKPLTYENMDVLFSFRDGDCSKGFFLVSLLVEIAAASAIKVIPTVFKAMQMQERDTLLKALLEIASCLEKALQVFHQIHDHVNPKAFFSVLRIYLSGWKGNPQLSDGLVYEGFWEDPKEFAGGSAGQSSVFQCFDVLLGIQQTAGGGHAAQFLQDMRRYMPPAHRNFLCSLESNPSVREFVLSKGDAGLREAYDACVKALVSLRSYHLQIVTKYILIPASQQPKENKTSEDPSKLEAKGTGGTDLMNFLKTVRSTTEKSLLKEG

Turning to `O=C(Nc1ccc(C2(C(=O)Nc3ccc(F)c(F)c3)CCC2)cc1)c1cccc(Cl)c1` [Example 26, 3-chloro-N-(4-{1-[(3,4-difluorophenyl)carbamoyl]cyclobutyl}phenyl) benzamide], the IC50 (in general, the point on the concentration scale where inhibition reaches its midpoint) in assay [1] was ≥ 10000 nM; in assay [2] it was 3 nM.

In the case of `O=C(Nc1ccc(C2(C(=O)Nc3ccc(F)nc3)CCC2)cc1)c1cccc(Cl)c1` [Example 29, 3-chloro-N-(4-{1-[(6-fluoropyridin-3-yl)carbamoyl]cyclobutyl}phenyl)benzamide], the IC50 is ≥ 10000 nM in assay [1] and 4 nM in assay [2].

As to `CCC1CC1NC(=O)C1(c2ccc(NC(=O)c3cccc(Cl)c3)cc2)CCC1` (stereo not shown) [Example 31, 3-chloro-N-(4-{1-[(2-ethylcyclopropyl)carbamoyl]cyclobutyl}phenyl)benzamide], the IC50 in assay [1] is ≥ 10000 nM; in assay [2], 8 nM.

Turning to `CCOC1CC1NC(=O)C1(c2ccc(NC(=O)c3cccc(Cl)c3)cc2)CCC1` (stereo not shown) [Example 36, 3-chloro-N-(4-{1-[(2-ethoxycyclopropyl)carbamoyl]cyclobutyl}phenyl) benzamide], the IC50 was ≥ 10000 nM in assay [1] and 24 nM in assay [2].

As to `O=C(Nc1ccc(C2(C(=O)NC3CC3C(F)F)CCC2)cc1)c1cccc(Cl)c1` (stereo not shown) [Example 37, 3-chloro-N-[4-(1-{[2-(difluoromethyl)cyclopropyl]carbamoyl}cyclobutyl)phenyl] benzamide], the IC50 in assay [1] was ≥ 10000 nM; in assay [2] it was 28 nM.

For `O=C(Nc1ccc(C2(C(=O)NC3CCCOC3)CCC2)cc1)c1cccc(Cl)c1` (stereo not shown) [Example 40, 3-chloro-N-(4-{1-[(oxan-3-yl)carbamoyl]cyclobutyl}phenyl)benzamide], the IC50 in assay [1] was ≥ 10000 nM; in assay [2] it was 39 nM.

On to `CC1(C)CC(NC(=O)C2(c3ccc(NC(=O)c4cccc(Cl)c4)cc3)CCC2)CCO1` (stereo not shown) [Example 42, 3-chloro-N-(4-{1-[(2,2-dimethyloxan-4-yl)carbamoyl]cyclobutyl}phenyl)benzamide], for which the concentration for half-maximal inhibition (IC50) was ≥ 10000 nM in assay [1] and 119 nM in assay [2].

Turning to `O=C(Nc1ccc(C2(C(=O)NC3CN(CC(F)(F)F)C3)CCC2)cc1)c1cccc(Cl)c1` [Example 44, 3-chloro-N-[4-(1-{[1-(2,2,2-trifluoroethyl)azetidin-3-yl]carbamoyl}cyclobutyl)phenyl]benzamide], the values for the IC50 in assay [1] and in assay [2] were ≥ 10000 nM and 709 nM, respectively.

As for `CCOC(C)CNC(=O)C1(c2ccc(NC(=O)c3cccc(Cl)c3)cc2)CCC1` (stereo not shown) [Example 45, 3-Chloro-N-(4-(1-((2-ethoxypropyl)carbamoyl)cyclobutyl)phenyl)benzamide], the IC50 in assay [1] is ≥ 10000 nM; in assay [2], 58 nM.

On to `O=C(Nc1ccc(C2(C(=O)NCC(F)(F)F)CCC2)cc1)c1cccc(Cl)c1` [Example 49, 3-chloro-N-(4-{1-[(2,2,2-trifluoroethyl)carbamoyl]cyclobutyl}phenyl) benzamide], for which the IC50 in assay [1] is ≥ 10000 nM; in assay [2], 126 nM.

As to `O=C(Nc1ccc(C2(C(=O)N[C@H]3CCOC3)CCC2)cc1)c1cccc(Cl)c1` [Example 51, 3-chloro-N-[4-(1-{[(3S)-oxolan-3-yl]carbamoyl}cyclobutyl)phenyl]benzamide], the IC50 in assay [1] is ≥ 10000 nM; in assay [2], 404 nM.

Regarding `O=C(Nc1ccc(C2(C(=O)N[C@@H]3CCOC3)CCC2)cc1)c1cccc(Cl)c1` [Example 52, 3-chloro-N-[4-(1-{[(3R)-oxolan-3-yl]carbamoyl}cyclobutyl)phenyl]benzamide], the IC50 in assay [1] was ≥ 10000 nM; in assay [2] it was 427 nM.

Consider `O=C(Nc1ccc(C2(C(=O)NS(=O)(=O)c3ccccc3)CCC2)cc1)c1cccc(Cl)c1` [Example 53, 3-chloro-N-(4-{1-[(phenylsulfonyl)carbamoyl]cyclobutyl}phenyl) benzamide], for which the IC50 in assay [1] is ≥ 10000 nM; in assay [2], 834 nM.

As for `O=C(Nc1cccc(Cl)c1F)c1ccc(C2(C(=O)Nc3ccc(F)cn3)CCC2)cc1` [Example 59, N-(3-chloro-2-fluorophenyl)-4-(1-((5-fluoropyridin-2-yl)carbamoyl)cyclobutyl)benzamide], the IC50 in assay [1] is ≥ 10000 nM; in assay [2], 17 nM.

As to `O=C(NC1CCCCC1)c1ccc(C2(C(=O)Nc3ccc(F)cn3)CCC2)cc1` [Example 60, N-cyclohexyl-4-{1-[(5-fluoropyridin-2-yl)carbamoyl]cyclobutyl} benzamide], the IC50 is ≥ 10000 nM in assay [1] and 489 nM in assay [2].

As to `O=C(NC1CCC(F)(F)CC1)c1ccc(C2(C(=O)Nc3ccc(F)cn3)CCC2)cc1` [Example 61, N-(4,4-difluorocyclohexyl)-4-{1-[(5-fluoropyridin-2-yl)carbamoyl]cyclobutyl} benzamide], the values for the IC50 in assay [1] and in assay [2] were ≥ 10000 nM and 1810 nM, respectively.

`CCO[C@@H]1C[C@@H]1NC(=O)C1(c2ccc(NC(=O)c3cccc(Cl)c3)cc2)CC(F)(F)C1` [Example 64, 3-chloro-N-[4-(1-{[(1S,2R)-2-ethoxycyclopropyl]carbamoyl}-3,3-difluorocyclobutyl)phenyl] benzamide]: the IC50 in assay [1] was ≥ 10000 nM; in assay [2] it was 37 nM.

As for `CCOC1CC1NC(=O)C1(c2ccc(NC(=O)c3cccc(Cl)c3)cc2)CC(F)(F)C1` (stereo not shown) [Example 65], the IC50 in assay [1] was ≥ 10000 nM; in assay [2], 71 nM.

In the case of `CCO[C@H]1C[C@H]1NC(=O)C1(c2ccc(NC(=O)c3cccc(Cl)c3)cc2)CC(F)(F)C1` [Example 66, 3-chloro-N-[4-(1-{[(1R,2S)-2-ethoxycyclopropyl]carbamoyl}-3,3-difluorocyclobutyl)phenyl] benzamide], the values for the IC50 in assay [1] and in assay [2] were ≥ 10000 nM and 89 nM, respectively.

As for `CCO[C@H]1C[C@@H]1NC(=O)C1(c2ccc(NC(=O)c3cccc(Cl)c3)cc2)CC(F)(F)C1` [Example 67, 3-chloro-N-[4-(1-{[(lS,2S)-2-ethoxycyclopropyl]carbamoyl}-3,3-difluorocyclobutyl)phenyl] benzamide], the IC50 was ≥ 10000 nM in assay [1] and 207 nM in assay [2].

As to `CCO[C@@H]1C[C@H]1NC(=O)C1(c2ccc(NC(=O)c3cccc(Cl)c3)cc2)CC(F)(F)C1` [Example 68, 3-chloro-N-[4-(1-{[(1R,2R)-2-ethoxycyclopropyl]carbamoyl}-3,3-difluorocyclobutyl)phenyl] benzamide], the concentration for half-maximal inhibition (IC50) in assay [1] is ≥ 10000 nM; in assay [2] it was 1440 nM.

For `O=C(Nc1ccc(C2(C(=O)NCCC(F)(F)F)CC(F)(F)C2)cc1)c1cccc(Cl)c1` [Example 69, 3-chloro-N-(4-{3,3-difluoro-1-[(3,3,3-trifluoropropyl)carbamoyl]cyclobutyl}phenyl) benzamide], the IC50 in assay [1] is ≥ 10000 nM; in assay [2] it was 56 nM.

Regarding `O=C(Nc1ccc(C2(C(=O)Nc3ccc(F)cc3)CC(F)(F)C2)cc1)c1cccc(F)c1` [Example 72, N-(4-(3,3-Difluoro-1-((4-fluorophenyl)carbamoyl)cyclobutyl)phenyl)-3-fluorobenzamide], the results for the IC50 in assay [1] and in assay [2] were ≥ 10000 nM and 4 nM, respectively.

For `N#Cc1cccc(C(=O)Nc2ccc(C3(C(=O)Nc4ccc(F)cc4)CC(F)(F)C3)cc2)c1` [Example 73, 3-cyano-N-(4-{3,3-difluoro-1-[(4-fluorophenyl)carbamoyl]cyclobutyl}phenyl) benzamide], the IC50 in assay [1] is ≥ 10000 nM; in assay [2], 4 nM.

For the compound `O=C(Nc1ccc(C2(C(=O)Nc3ccc(F)cc3)CC(F)(F)C2)cc1)c1cc(Cl)ccn1` [Example 74, 4-chloro-N-(4-{3,3-difluoro-1-[(4-fluorophenyl)carbamoyl]cyclobutyl}phenyl) pyridine-2-carboxamide], the IC50 was ≥ 10000 nM in assay [1] and 5 nM in assay [2].

With `O=C(Nc1ccc(C2(C(=O)Nc3ccc(F)cc3)CC(F)(F)C2)cc1)c1cncc(Cl)c1` [Example 75, 5-chloro-N-(4-{3,3-difluoro-1-[(4-fluorophenyl)carbamoyl]cyclobutyl}phenyl) pyridine-3-carboxamide], the IC50 in assay [1] was ≥ 10000 nM; in assay [2], 10 nM.
